The text below walks through data of patent publication US20100148126A1 (priority 2008, published 2010).

Sequence of wild-type αHL protein pore (P09616 27-319 limits assumed): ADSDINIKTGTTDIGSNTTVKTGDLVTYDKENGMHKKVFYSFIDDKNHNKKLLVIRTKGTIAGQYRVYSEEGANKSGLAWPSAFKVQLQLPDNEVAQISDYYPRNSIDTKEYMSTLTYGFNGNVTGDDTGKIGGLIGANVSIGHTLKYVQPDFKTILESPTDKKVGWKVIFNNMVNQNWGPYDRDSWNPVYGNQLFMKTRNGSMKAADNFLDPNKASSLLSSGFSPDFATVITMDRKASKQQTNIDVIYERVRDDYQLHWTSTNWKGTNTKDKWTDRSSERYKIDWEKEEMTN

This experiment has as its target wild-type αHL protein pore (Staphylococcus aureus, UniProt P09616). The experiment is classed as binding.
As for `CCNCC.Cl` [DEA, diethylammonium chloride], the “mean amplitude of analyte-boromycin complex events” value (from here on “mean amplitude”) was 33.6±0.8 pA and the “τoff (mean dwell time) of analyte-boromycin complex” value (shortened to “τoff (mean dwell time)”) worked out at 40.5 ± 0.5 ms. On the same counts, the results for `Cl.ClCCN1CCOCC1` [CM, 4-(2-chloroethyl)morpholine hydrochloride] are 33.5±1.2 pA and 34.7 ± 0.6 ms. For KCl [K^+], in that order: 33.6±0.3 pA and 52.1 ± 0.3 ms.

With NH4Cl [NH4^+], the “mean amplitude” value worked out at 33.7±0.2 pA and the “τoff (mean dwell time)” value amounted to 75.0 ± 1.6 ms.

With `CCN(CC)CC.Cl` [TEA, triethylammonium chloride], the “mean amplitude” value was found to be 33.7±0.4 pA and the “τoff (mean dwell time)” value was 60.6 ± 1.9 ms.

For the compound boromycin, the “increase of event mean dwell time in BMIM-Cl versus NaCl” value was found to be 2.6 fold.
